Reference: paper PMC11589570, “Critical assessment of LC3/GABARAP ligands used for degrader development and ligandability of LC3/GABARAP binding pockets” (Nature Communications, 2024)
Read-outs that look alike come from different tables or passages of the source.

Target: LC3B (Homo sapiens, UniProt Q9GZQ8)
Conditions: for CSP: LC3B:ligand molar ratio 1:2; for 3D Mapping code: molar ratio 1:2

## O=C1Nc2ccc(I)cc2C1=Cc1cc(Br)c(O)c(Br)c1 [compound 4]
  Kd: ≥ 200 µM
I34 HN resonance, molar ratio 10O5:LC3B 1
  CSP induced: 0.019
I34 HN resonance, molar ratio 10O5:LC3B 2
  CSP induced: 0.03102
I34 HN resonance, molar ratio 10O5:LC3B 8
  CSP induced: 0.06113
K51 HN resonance, molar ratio 10O5:LC3B 1
  CSP induced: 0.02725
K51 HN resonance, molar ratio 10O5:LC3B 2
  CSP induced: 0.0413
K51 HN resonance, molar ratio 10O5:LC3B 8
  CSP induced: 0.0854
L82 HN resonance, molar ratio 10O5:LC3B 1
  CSP induced: 0.01304
L82 HN resonance, molar ratio 10O5:LC3B 2
  CSP induced: 0.03131
L82 HN resonance, molar ratio 10O5:LC3B 8
  CSP induced: 0.0642
LC3B residue A75
  CSP: 0.00342 ppm
LC3B residue A78
  CSP: 0.00654 ppm
LC3B residue A114
  CSP: 0.006 ppm
LC3B residue D19
  CSP: 0.011 ppm
LC3B residue D48
  CSP: 0.026 ppm
  3D Mapping code: Light green (intermediate (SD < CSP <2xSD))
LC3B residue D56
  CSP: 0.017 ppm
  3D Mapping code: Light green (intermediate (SD < CSP <2xSD))
LC3B residue D104
  CSP: 0.00224 ppm
LC3B residue D106
  CSP: 0.00462 ppm
LC3B residue E14
  CSP: 0.00184 ppm
LC3B residue E18
  CSP: 0.00544 ppm
LC3B residue E25
  CSP: 0.018 ppm
  3D Mapping code: Light green (intermediate (SD < CSP <2xSD))
LC3B residue E36
  CSP: 0.023 ppm
  3D Mapping code: Light green (intermediate (SD < CSP <2xSD))
LC3B residue E41
  CSP: 0.002 ppm
LC3B residue E62
  CSP: 0.016 ppm
  3D Mapping code: Light green (intermediate (SD < CSP <2xSD))
LC3B residue E97
  CSP: 0.013 ppm
LC3B residue E100
  CSP: 0.015 ppm
LC3B residue E102
  CSP: 0.00152 ppm
LC3B residue E105
  CSP: 0.00355 ppm
LC3B residue E117
  CSP: 0.010 ppm
LC3B residue F07
  CSP: 0.011 ppm
LC3B residue F13
  CSP: 0.00221 ppm
LC3B residue F52
  CSP: 0.070 ppm
  3D Mapping code: Orange (strong (2xSD <CSP))
LC3B residue F108
  CSP: 0.00424 ppm
LC3B residue F119
  CSP: 0.003 ppm
LC3B residue G40, estimated
  CSP: 0.006 ppm
LC3B residue G85
  3D Mapping code: Light green (intermediate (SD < CSP <2xSD))
LC3B residue G107
  CSP: 0.005 ppm
LC3B residue H27
  CSP: 0.018 ppm
  3D Mapping code: Light green (intermediate (SD < CSP <2xSD))
LC3B residue H57
  CSP: 0.022 ppm
  3D Mapping code: Light green (intermediate (SD < CSP <2xSD))
LC3B residue H86
  3D Mapping code: Light green (intermediate (SD < CSP <2xSD))
LC3B residue I23
  CSP: 0.018 ppm
  3D Mapping code: Light green (intermediate (SD < CSP <2xSD))
LC3B residue I31
  CSP: 0.020 ppm
  3D Mapping code: Light green (intermediate (SD < CSP <2xSD))
LC3B residue I34
  CSP: 0.026 ppm
  3D Mapping code: Light green (intermediate (SD < CSP <2xSD))
LC3B residue I35
  CSP: 0.011 ppm
LC3B residue I64
  CSP: 0.035 ppm
  3D Mapping code: Orange (strong (2xSD <CSP))
LC3B residue I66
  CSP: 0.00535 ppm
LC3B residue I67
  CSP: 0.022 ppm
  3D Mapping code: Light green (intermediate (SD < CSP <2xSD))
LC3B residue I95
  3D Mapping code: Light green (intermediate (SD < CSP <2xSD))
LC3B residue K08
  CSP: 0.006 ppm
LC3B residue K30
  CSP: 0.022 ppm
  3D Mapping code: Light green (intermediate (SD < CSP <2xSD))
LC3B residue K39
  CSP: 0.008 ppm
LC3B residue K42
  CSP: 0.00565 ppm
LC3B residue K49
  CSP: 0.017 ppm
  3D Mapping code: Light green (intermediate (SD < CSP <2xSD))
LC3B residue K51
  CSP: 0.037 ppm
  3D Mapping code: Orange (strong (2xSD <CSP))
LC3B residue K65
  CSP: 0.004 ppm
LC3B residue K103
  CSP: 0.011 ppm
LC3B residue L22
  CSP: 0.009 ppm
LC3B residue L44
  CSP: 0.00371 ppm
LC3B residue L47
  CSP: 0.022 ppm
  3D Mapping code: Light green (intermediate (SD < CSP <2xSD))
LC3B residue L53
  CSP: 0.052 ppm
  3D Mapping code: Orange (strong (2xSD <CSP))
LC3B residue L63
  CSP: 0.011 ppm
LC3B residue L71
  CSP: 0.011 ppm
LC3B residue L73
  CSP: 0.011 ppm
LC3B residue L81
  3D Mapping code: Light green (intermediate (SD < CSP <2xSD))
LC3B residue L82
  3D Mapping code: Light green (intermediate (SD < CSP <2xSD))
LC3B residue L109
  CSP: 0.00462 ppm
LC3B residue M01, estimated
  CSP: 0.002 ppm
LC3B residue M60
  CSP: 0.024 ppm
  3D Mapping code: Light green (intermediate (SD < CSP <2xSD))
LC3B residue M111
  CSP: 0.018 ppm
  3D Mapping code: Light green (intermediate (SD < CSP <2xSD))
LC3B residue N59
  CSP: 0.072 ppm
  3D Mapping code: Orange (strong (2xSD <CSP))
LC3B residue N74
  CSP: 0.002 ppm
LC3B residue N76
  CSP: 0.00173 ppm
LC3B residue N84
  3D Mapping code: Light green (intermediate (SD < CSP <2xSD))
LC3B residue P02, estimated
  CSP: 0.002 ppm
LC3B residue P28, estimated
  CSP: 0.016 ppm
LC3B residue P28, CSP estimated
  3D Mapping code: Light green (intermediate (SD < CSP <2xSD))
LC3B residue P32, estimated
  CSP: 0.024 ppm
LC3B residue P32, CSP estimated
  3D Mapping code: Light green (intermediate (SD < CSP <2xSD))
LC3B residue P45, estimated
  CSP: 0.005 ppm
LC3B residue P55, estimated
  CSP: 0.025 ppm
LC3B residue P55, CSP estimated
  3D Mapping code: Light green (intermediate (SD < CSP <2xSD))
LC3B residue Q09
  CSP: 0.000424 ppm
LC3B residue Q15
  CSP: 0.00358 ppm
LC3B residue Q26
  CSP: 0.017 ppm
  3D Mapping code: Light green (intermediate (SD < CSP <2xSD))
LC3B residue Q43
  CSP: 0.00371 ppm
LC3B residue Q72
  CSP: 0.009 ppm
LC3B residue Q77
  CSP: 0.005 ppm
LC3B residue Q116
  CSP: 0.00122 ppm
LC3B residue R10
  CSP: 0.005 ppm
LC3B residue R11
  CSP: 0.003 ppm
LC3B residue R16
  CSP: 0.013 ppm
LC3B residue R21
  CSP: 0.026 ppm
  3D Mapping code: Light green (intermediate (SD < CSP <2xSD))
LC3B residue R24
  CSP: 0.014 ppm
LC3B residue R37
  CSP: 0.016 ppm
LC3B residue R68
  CSP: 0.032 ppm
  3D Mapping code: Orange (strong (2xSD <CSP))
LC3B residue R69
  CSP: 0.020 ppm
  3D Mapping code: Light green (intermediate (SD < CSP <2xSD))
LC3B residue R70
  CSP: 0.032 ppm
  3D Mapping code: Orange (strong (2xSD <CSP))
LC3B residue S03, estimated
  CSP: 0.002 ppm
LC3B residue S61
  CSP: 0.017 ppm
  3D Mapping code: Light green (intermediate (SD < CSP <2xSD))
LC3B residue S87
  3D Mapping code: Orange (strong (2xSD <CSP))
LC3B residue S90
  3D Mapping code: Orange (strong (2xSD <CSP))
LC3B residue S92
  3D Mapping code: Orange (strong (2xSD <CSP))
LC3B residue S96
  CSP: 0.039 ppm
  3D Mapping code: Orange (strong (2xSD <CSP))
LC3B residue S101
  CSP: 0.011 ppm
LC3B residue S115
  CSP: 0.008 ppm
LC3B residue T06
  CSP: 0.00323 ppm
LC3B residue T12
  CSP: 0.00666 ppm
LC3B residue T29, estimated
  CSP: 0.016 ppm
LC3B residue T29, CSP estimated
  3D Mapping code: Light green (intermediate (SD < CSP <2xSD))
LC3B residue T50
  CSP: 0.022 ppm
  3D Mapping code: Light green (intermediate (SD < CSP <2xSD))
LC3B residue T93
  3D Mapping code: Orange (strong (2xSD <CSP))
LC3B residue T118
  CSP: 0.005 ppm
LC3B residue V17
  CSP: 0.009 ppm
LC3B residue V20
  CSP: 0.010 ppm
LC3B residue V33
  CSP: 0.029 ppm
  3D Mapping code: Light green (intermediate (SD < CSP <2xSD))
LC3B residue V46
  CSP: 0.008 ppm
LC3B residue V54
  CSP: 0.049 ppm
  3D Mapping code: Orange (strong (2xSD <CSP))
LC3B residue V58
  CSP: 0.034 ppm
  3D Mapping code: Orange (strong (2xSD <CSP))
LC3B residue V83
  3D Mapping code: Orange (strong (2xSD <CSP))
LC3B residue V89
  3D Mapping code: Light green (intermediate (SD < CSP <2xSD))
LC3B residue V91, CSP estimated
  3D Mapping code: Orange (strong (2xSD <CSP))
LC3B residue V98
  CSP: 0.013 ppm
LC3B residue V112
  CSP: 0.027 ppm
  3D Mapping code: Light green (intermediate (SD < CSP <2xSD))
LC3B residue Y38
  CSP: 0.00356 ppm
LC3B residue Y99
  CSP: 0.00251 ppm
LC3B residue Y110
  CSP: 0.037 ppm
  3D Mapping code: Orange (strong (2xSD <CSP))
LC3B residue Y113
  CSP: 0.013 ppm
N59 HN resonance, molar ratio 10O5:LC3B 1
  CSP induced: 0.03127
N59 HN resonance, molar ratio 10O5:LC3B 2
  CSP induced: 0.08027
N59 HN resonance, molar ratio 10O5:LC3B 8
  CSP induced: 0.1884
S90 HN resonance, molar ratio 10O5:LC3B 1
  CSP induced: 0.01709
S90 HN resonance, molar ratio 10O5:LC3B 2
  CSP induced: 0.04125
S90 HN resonance, molar ratio 10O5:LC3B 8
  CSP induced: 0.08089
Y110 HN resonance, molar ratio 10O5:LC3B 1
  CSP induced: 0.0222
Y110 HN resonance, molar ratio 10O5:LC3B 2
  CSP induced: 0.03845
Y110 HN resonance, molar ratio 10O5:LC3B 8
  CSP induced: 0.0862
